The record followed here is patent EP4763839A1 (Pamplona Therapeutics (Shenzhen) Co., Ltd., priority 2023, dated 2025).

In the assay the target is T1, IRAK4 (Homo sapiens, UniProt Q9NWZ3).
T1 sequence (Q9NWZ3 1-460): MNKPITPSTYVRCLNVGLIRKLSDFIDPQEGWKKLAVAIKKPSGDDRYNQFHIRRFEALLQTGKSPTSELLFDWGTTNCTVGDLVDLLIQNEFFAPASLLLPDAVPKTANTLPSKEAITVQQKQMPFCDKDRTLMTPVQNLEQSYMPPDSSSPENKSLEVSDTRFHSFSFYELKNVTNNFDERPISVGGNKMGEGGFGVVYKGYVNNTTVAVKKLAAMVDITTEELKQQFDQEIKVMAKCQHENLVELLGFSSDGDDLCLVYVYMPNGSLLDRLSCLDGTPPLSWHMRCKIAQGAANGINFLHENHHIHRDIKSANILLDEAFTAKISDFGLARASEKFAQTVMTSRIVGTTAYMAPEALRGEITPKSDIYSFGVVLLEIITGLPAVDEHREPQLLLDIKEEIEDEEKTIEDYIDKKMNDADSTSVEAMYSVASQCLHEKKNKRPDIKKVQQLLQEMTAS
Put plainly: Degradation of IRAK4 in THP1 cells, Western blot. Particulars: THP-1 cells, 24 hours of incubation; for DC50: IRAK4 protein by Western blot, read-out: DC50; for Dmax: maximum degradation rate, read-out: Dmax. More on the design: Degradation of IRAK4 in THP1 by compound; host or cells: THP-1. The assay is classed as cell-based. On the procedure: After 24 hours of incubation, the cells were collected into 1.5 mL centrifuge tubes and centrifuged at 1,000 rpm for 5 minutes. […] The supernatants were collected, and the IRAK4 protein levels were respectively detected by Western blot (WB). The total protein concentration in the cell lysate supernatant was determined using a BCA protein quantification kit (NCM). Based on the total protein concentration detected by BCA, the samples were adjusted to 2 μg/μL using cell lysis buffer and 5×SDS-PAGE protein loading buffer (Beyotime), heated at 95°C for 5 minutes in a metal bath, and then placed on ice for an ice bath for 5 minutes before being used as the loading samples for Western blot analysis. Protein electrophoresis was performed using a 10% SDS-PAGE gel with a loading volume of 20 μL (total protein 40 μg) and Tris-SDS electrophoresis at a constant voltage of 80 V. After electrophoresis, the proteins on the gel were transferred to a 0.2 μm PVDF membrane (Immobilon) using a semi-dry transfer method at 0.5 A and 20 V for 60 minutes. After transfer, the membrane was placed in 5% skimmed milk and incubated at rt for 2 hours. After blocking, the PVDF membrane was incubated with primary antibody against IRAK4 (Abcam) at 4°C overnight. […] The color development and protein band imaging were performed using a chemiluminescence imaging system ([…] Technology Co., Ltd.). The protein bands were analyzed for grayscale values using Image J analysis software. The corrected grayscale values for each sample were calculated and then compared with those of the control group treated with DMSO alone to calculate the degradation rate.

Molecules are shown by their SMILES. Where a name gives a salt, the structure may show the parent alone. A value given as a limit tells only on which side of the number the result lay.

Turning to `N#Cc1ccnc(C(=O)Nc2cn(-c3ccc(N4CCN(CC5CCN(c6ccc(NC7CCC(=O)NC7=O)cc6F)CC5)CC4)cc3)nc2C(N)=O)c1` (centres unmarked) [Compound A349, N-(3-Carbamoyl-1-(4-(4-((1-(4-((2,6-dioxopiperidin-3-yl)amino)-2-fluorophenyl)piperidin-4-yl)methyl)piperazin-1-yl)phenyl)-1H-pyrazol-4-yl)-4-cyanopicolinamide], the DC50 was greater than 1000 nM and the greatest degradation seen (Dmax) is less than 40%.

For `Cn1c(=O)n(C2CCC(=O)NC2=O)c2cccc(N3CCC4(CC3)CC(NCc3ccc(-n5cc(NC(=O)c6cccc(-c7ccn[nH]7)n6)c(S(N)(=O)=O)n5)cc3)C4)c21` (centres unmarked) [Compound A322, N-(1-(4-(((7-(1-(2,6-dioxopiperidin-3-yl)-3-methyl-2-oxo-2,3-dihydro-1H-benzo[d]imidazol-4-yl)-7-azaspiro[3.5]nonan-2-yl)amino)methyl)phenyl)-3-sulfamoyl-1H-pyrazol-4-yl)-6-(1H-pyrazol-5-yl)picolinamide], the DC50 is less than 100 nM and the greatest degradation seen (Dmax) was greater than 60%.

As to `CC(C)(O)c1nn(-c2ccc(N3CCN(C4CCN(c5ccc(NC6CCC(=O)NC6=O)cc5F)CC4)CC3)cc2)cc1NC(=O)c1cncc(C#N)c1` (centres unmarked) [Compound A389, 5-Cyano-N-(1-(4-(4-(1-(4-((2,6-dioxopiperidin-3-yl)amino)-2-fluorophenyl)piperidin-4-yl)piperazin-1-yl)phenyl)-3-(2-hydroxypropan-2-yl)-1H-pyrazol-4-yl)nicotinamide], the DC50 was greater than 1000 nM and the Dmax was less than 40%.

Regarding `Cn1c(=O)n(C2CCC(=O)NC2=O)c2cccc(NCCN3CC4(C3)CN(Cc3ccc(-n5cc(NC(=O)c6cccc(-c7ccn[nH]7)n6)c(S(N)(=O)=O)n5)cc3)C4)c21` (centres unmarked) [Compound A334], the 50% degradation concentration (DC50) is less than 100 nM and the maximal degradation (Dmax) was greater than 60%.

Consider `Cn1c(=O)n(C2CCC(=O)NC2=O)c2cccc(N3CCC(CCN4CCN(c5ccc(-n6cc(NC(=O)c7cccc(-c8ccn[nH]8)n7)c(S(N)(=O)=O)n6)cc5)CC4)CC3)c21` (centres unmarked) [Compound A350, N-(1-(4-(4-(2-(1-(1-(2,6-Dioxopiperidin-3-yl)-3-methyl-2-oxo-2,3-dihydro-1H-benzo[d]imidazol-4-yl)piperidin-4-yl)ethyl)piperazin-1-yl)phenyl)-3-sulfamoyl-1H-pyrazol-4-yl)-6-(1H-pyrazol-5-yl)picolinamide], for which the half-maximal degradation concentration (DC50) was less than 100 nM and the Dmax is greater than 60%.

Consider `Cn1c(=O)n(C2CCC(=O)NC2=O)c2cccc(NCCN3CCN(C(=O)c4ccc(-n5cc(NC(=O)c6cccc(-c7ccn[nH]7)n6)c(S(N)(=O)=O)n5)cc4)CC3)c21` (centres unmarked) [Compound A356, N-(1-(4-(4-(2-((1-(2,6-Dioxopiperidin-3-yl)-3-methyl-2-oxo-2,3-dihydro-1H-benzo[d]imidazol-4-yl)amino)ethyl)piperazine-1-carbonyl)phenyl)-3-sulfamoyl-1H-pyrazol-4-yl)-6-(1H-pyrazol-5-yl)picolinamide], for which the DC50 is less than 100 nM and the Dmax was greater than 60%.

For the molecule `NC(=O)c1cn(-c2ccc(N3CCN(C4CCN(c5ccc(C(=O)NC6CCC(=O)NC6=O)nc5)CC4)CC3)cc2)cc1NC(=O)c1cccc(C(F)(F)F)n1` (centres unmarked) [Compound A452, N-(4-Carbamoyl-1-(4-(4-(1-(6-((2,6-dioxopiperidin-3-yl)carbamoyl)pyridin-3-yl)piperidin-4-yl)piperazin-1-yl)phenyl)-1H-pyrrol-3-yl)-6-(trifluoromethyl)picolinamide], the DC50 is less than 100 nM and the Dmax was greater than 60%.

With `CN(c1ccc(N2CCC(CN3CCN(c4ccc(-n5cc(NC(=O)c6cccc(C(F)(F)F)n6)c(C(N)=O)n5)cc4)CC3)CC2)c(F)c1)C1CCC(=O)NC1=O` (centres unmarked) [Compound A447, N-(3-Carbamoyl-1-(4-(4-((1-(4-((2,6-Dioxopiperidin-3-yl)(methyl)amino)-2-fluorophenyl)piperidin-4-yl)methyl)piperazin-1-yl)phenyl)-1H-pyrazol-4-yl)-6-(trifluoromethyl)picolinamide formate], the DC50 is less than 100 nM and the maximal degradation (Dmax) was greater than 60%.

For the molecule `Cn1c(=O)n(C2CCC(=O)NC2=O)c2cccc(NCC3CC4(C3)CN(C(=O)c3ccc(-n5cc(NC(=O)c6cccc(-c7ccn[nH]7)n6)c(S(N)(=O)=O)n5)cc3)C4)c21` (centres unmarked) [Compound A354, N-(1-(4-(6-(((1-(2,6-Dioxopiperidin-3-yl)-3-methyl-2-oxo-2,3-dihydro-1H-benzo[d]imidazol-4-yl)amino)methyl)-2-azaspiro[3.3]heptane-2-carbonyl)phenyl)-3-sulfamoyl-1H-pyrazol-4-yl)-6-(1H-pyrazol-5-yl)picolinamide], the half-maximal degradation concentration (DC50) was less than 100 nM and the greatest degradation seen (Dmax) is greater than 60%.

With `Cn1c(=O)n(C2CCC(=O)NC2=O)c2cccc(N3CCC(N4CCN(Cc5ccc(-n6cc(NC(=O)c7cccc(-c8ccn[nH]8)n7)c(S(N)(=O)=O)n6)cc5)CC4)CC3)c21` (centres unmarked) [Compound A352], the half-maximal degradation concentration (DC50) was less than 100 nM and the greatest degradation seen (Dmax) was greater than 60%.

With `Cn1c(=O)n(C2CCC(=O)NC2=O)c2cccc(N3CCC4(CC3)CN(Cc3ccc(-n5cc(NC(=O)c6cccc(C(F)(F)F)n6)c(C(N)=O)n5)cc3)C4)c21` (centres unmarked) [Compound A319, N-(3-carbamoyl-1-(4-((7-(1-(2,6-dioxopiperidin-3-yl)-3-methyl-2-oxo-2,3-dihydro-1H-benzo [d]imidazol-4-yl)-2,7-diazaspiro[3.5]nonan-2-yl)methyl)phenyl)-1H-pyrazol-4-yl)-6-(trifluoromethyl)picolinamide], the DC50 was 100 to 1000 nM and the maximal degradation (Dmax) was in the range of 40 to 60%.

With `NC(=O)c1nn(-c2ccc(N3CCN(CC4CCN(c5ccc(NC6CCC(=O)NC6=O)cn5)CC4)CC3)cc2)cc1NC(=O)c1cccc(C(F)(F)F)n1` (centres unmarked) [Compound A396, N-(3-Carbamoyl-1-(4-(4-((1-(5-((2,6-dioxopiperidin-3-yl)amino)pyridin-2-yl)piperidin-4-yl)methyl)piperazin-1-yl)phenyl)-1H-pyrazol-4-yl)-6-(trifluoromethyl)picolinamide], the DC50 is less than 100 nM and the maximal degradation (Dmax) was greater than 60%.

As for `Cn1c(=O)n(C2CCC(=O)NC2=O)c2cccc(C#CCOC3CN(Cc4ccc(-n5cc(NC(=O)c6cccc(-c7ccn[nH]7)n6)c(S(N)(=O)=O)n5)cc4)C3)c21` (centres unmarked) [Compound A351, N-(1-(4-((3-((3-(1-(2,6-dioxopiperidin-3-yl)-3-methyl-2-oxo-2,3-dihydro-1H-benzo[d]imidazol-4-yl)prop-2-yn-1-yl)oxy)azetidin-1-yl)methyl)phenyl)-3-sulfamoyl-1H-pyrazol-4-yl)-6-(1H-pyrazol-5-yl)picolinamide], the half-maximal degradation concentration (DC50) lay in the range of 100 to 1000 nM and the Dmax fell in the range of 40 to 60%.

In the case of `NC(=O)c1nn(-c2ccc(N3CCN(C4CCN(c5ccc(C(=O)NC6CCC(=O)NC6=O)cc5F)CC4)CC3)cc2)cc1NC(=O)c1cccc(C(F)(F)F)n1` (centres unmarked) [Compound A378, 1-(4-{4-[1-(4-{[(2,6-Dioxopiperidin-3-yl)amino]carbonyl}-2-fluorophenyl)piperidin-4-yl]piperazin-1-yl}phenyl)-4-({[6-(trifluoromethyl)pyridin-2-yl]carbonyl}amino)pyrazole-3-carboxamide], the DC50 was less than 100 nM and the Dmax is greater than 60%.

With `COc1ccc(C(=O)N2CCC(CCN3CCN(c4ccc(-n5cc(NC(=O)c6cccc(-c7ccn[nH]7)n6)c(S(N)(=O)=O)n5)cc4)CC3)C2)cc1N1CCC(=O)NC1=O` (centres unmarked) [Compound A328, N-(1-(4-(4-(1-(3-(2,4-dioxotetrahydropyrimidin-1(2H)-yl)-4-methoxybenzoyl)pyrrolidin-3-ethyl)piperazin-1-yl)phenyl)-3-sulfonylamino-1H-pyrazol-4-yl)-6-(1H-pyrazol-5-yl)picolinamide trifluoroacetate], the DC50 is less than 100 nM and the Dmax is greater than 60%.

For `NC(=O)c1nn(-c2ccc(N3CCN(C4CCC5(CC4)CN(c4ccc(N6CCC(=O)NC6=O)cc4)C5)CC3)cc2)cc1NC(=O)c1cccc(C(F)(F)F)n1` [Compound A391, N-(3-Carbamoyl-1-(4-(4-(2-(4-(2,4-dioxotetrahydropyrimidin-1(2H)-yl)phenyl)-2-azaspiro[3.5]nonan-7-yl)piperazin-1-yl)phenyl)-1H-pyrazol-4-yl)-6-(trifluoromethyl)picolinamide], the half-maximal degradation concentration (DC50) was less than 100 nM and the Dmax is greater than 60%.
